{"source": "ChEMBL document CHEMBL1136040", "about": "“Specific accumulation and growth inhibitory effects of hybrid liposomes to hepatoma cells in vitro” (Bioorg Med Chem Lett, 2002)", "tested_on": "HepG2", "test": "Compound was tested for its inhibition on growth of human hepatoma cells (Hep-G2); No inhibitory effects was observed", "assay_type": "functional, cell-based"}
{"smiles": "CCCCCCCCCCCCCC(=O)OCC(COP(=O)([O-])OCC[N+](C)(C)C)OC(=O)CCCCCCCCCCCCC", "note": "(configuration not stated)", "values": [{"measurement": "inhibition", "value": "No inhibition"}]}
{"smiles": "CCCCCCCCCCCCCC(=O)OCC(COP(=O)([O-])OCC[N+](C)(C)C)OC(=O)CCCCCCCCCCCNc1ccc([N+](=O)[O-])c2nonc12", "note": "(configuration not stated)", "values": [{"measurement": "inhibition", "value": "No inhibition"}]}
